# Results taken from PMC9226319, “Peripherally restricted transthyretin-based delivery system for probes and therapeutics avoiding opioid-related side effects” (Nature Communications, 2022).
# Values joined by “and” are separate entries in the source; they are usually repeats but may differ in a detail not shown here. Equal values may be shown once. Read-outs that look alike come from different tables or passages of the source.
# Tests used:
# [1] = target: human mu-opioid receptors (Homo sapiens, UniProt P35372); experiment: biochemical; type: binding
# TTR in human serum = TTR in human serum (Homo sapiens, UniProt P02766); experiment: TTR serum fluorescent probe exclusion (FPE) selectivity assay; type: binding; settings: ligand 10 µM; for % TTR occupancy in human serum: FPE probe 3.6 µM, 3 h reading relative to probe alone, text mean ± s.d., table replicates; for %FPE probe fluorescence: human serum, replicates
# purified human TTR = purified human TTR (Homo sapiens, UniProt P02766); experiment: Fluorescence polarization (FP) binding assay, ligands to TTR in buffer
# male Sprague-Dawley rats [2] = experiment: Gastrointestinal (GI) transit (charcoal meal) assays; type: in vivo, rat; settings: rat, in vivo, sc
# male Sprague-Dawley rats [3] = settings: rat, in vivo
# human mu-opioid receptors, sequence (P35372 whole entry): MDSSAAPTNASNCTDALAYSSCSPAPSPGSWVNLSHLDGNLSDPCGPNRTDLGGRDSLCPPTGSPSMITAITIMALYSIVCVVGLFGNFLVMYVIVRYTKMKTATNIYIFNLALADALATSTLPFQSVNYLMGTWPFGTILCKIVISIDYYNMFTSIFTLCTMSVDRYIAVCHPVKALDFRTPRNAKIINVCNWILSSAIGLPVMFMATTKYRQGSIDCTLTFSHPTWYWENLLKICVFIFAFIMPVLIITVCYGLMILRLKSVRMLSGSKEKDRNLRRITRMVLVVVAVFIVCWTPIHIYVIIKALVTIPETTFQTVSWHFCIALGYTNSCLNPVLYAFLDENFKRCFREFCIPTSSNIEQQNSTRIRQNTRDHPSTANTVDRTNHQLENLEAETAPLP
smiles,measurement,setting,value
C=CCN1CC[C@]23c4c5ccc(O)c4O[C@H]2[C@@H](OCc2cn(CCOCCOCCNCCCCCCOc4cc(OCCCc6c(C)n[nH]c6C)cc(C(=O)O)c4)nn2)CC[C@@]3(O)[C@H]1C5 [AG10-L1-Nal],fold decrease in mu-opioid receptor binding affinity when TTR was present,[1],9 fold
same,fold higher mu-opioid receptor binding affinity than naloxegol,[1],3.5 fold
same,fold lower mu-opioid receptor binding affinity than naloxone,[1],3 fold
same,Ki,[1]; binding affinity to mu-opioid receptor (Ki),0.81 nM
same,Ki,[1]; binding affinity to mu-opioid receptor (Ki) in the presence of TTR,7.4 nM
same,% TTR occupancy in human serum,TTR in human serum,71.5 ± 1.8% and 70.26% and 71.49% and 74.04% and 70.09%
same,%FPE probe fluorescence,TTR in human serum; time 0.000 h,0.000%
same,%FPE probe fluorescence,TTR in human serum; time 0.083 h,1.080% and 0.767% and -1.456% and -0.892%
same,%FPE probe fluorescence,TTR in human serum; time 0.250 h,2.570% and 0.301% and -1.690% and -0.400%
same,%FPE probe fluorescence,TTR in human serum; time 0.500 h,1.410% and 3.016% and 1.843% and 4.013%
same,%FPE probe fluorescence,TTR in human serum; time 1.000 h,5.261% and 6.236% and 4.568% and 2.982%
same,%FPE probe fluorescence,TTR in human serum; time 1.250 h,9.024% and 8.732% and 5.446% and 7.822%
same,%FPE probe fluorescence,TTR in human serum; time 1.500 h,10.681% and 11.389% and 3.787% and 9.124%
same,%FPE probe fluorescence,TTR in human serum; time 1.750 h,16.590% and 14.034% and 12.392% and 15.982%
same,%FPE probe fluorescence,TTR in human serum; time 2.000 h,16.797% and 16.410% and 12.993% and 18.679%
same,%FPE probe fluorescence,TTR in human serum; time 2.250 h,24.164% and 18.098% and 17.162% and 21.660%
same,%FPE probe fluorescence,TTR in human serum; time 2.500 h,24.735% and 22.591% and 22.580% and 23.970%
same,%FPE probe fluorescence,TTR in human serum; time 2.750 h,27.729% and 25.808% and 22.823% and 27.770%
same,%FPE probe fluorescence,TTR in human serum; time 3.000 h,29.742% and 28.511% and 25.959% and 29.908%
same,%FPE probe fluorescence,TTR in human serum; time 3.500 h,34.408% and 33.995% and 32.949% and 35.412%
same,%FPE probe fluorescence,TTR in human serum; time 3.750 h,36.701% and 36.516% and 34.676% and 37.256%
same,%FPE probe fluorescence,TTR in human serum; time 4.000 h,39.055% and 39.875% and 38.359% and 40.118%
same,%FPE probe fluorescence,TTR in human serum; time 4.250 h,42.939% and 41.758% and 38.579% and 41.416%
same,%FPE probe fluorescence,TTR in human serum; time 4.500 h,43.175% and 42.158% and 39.564% and 43.974%
same,%FPE probe fluorescence,TTR in human serum; time 4.750 h,49.116% and 47.668% and 46.875% and 46.250%
same,%FPE probe fluorescence,TTR in human serum; time 5.000 h,48.320% and 48.257% and 45.947% and 47.487%
same,%FPE probe fluorescence,TTR in human serum; time 5.250 h,49.797% and 50.503% and 44.600% and 50.002%
same,%FPE probe fluorescence,TTR in human serum; time 5.500 h,51.668% and 52.681% and 50.017% and 50.897%
same,%FPE probe fluorescence,TTR in human serum; time 5.750 h,52.829% and 53.093% and 50.389% and 55.989%
same,%FPE probe fluorescence,TTR in human serum; time 6.000 h,53.052% and 53.791% and 49.880% and 55.657%
same,Kd,purified human TTR,485 nM
same,% Fluorescence polarization (mean),purified human TTR; log [nM] inhibitor 0.990,100.000%
same,% Fluorescence polarization (mean),purified human TTR; log [nM] inhibitor 1.291,101.730%
same,% Fluorescence polarization (mean),purified human TTR; log [nM] inhibitor 1.592,105.820%
same,% Fluorescence polarization (mean),purified human TTR; log [nM] inhibitor 1.893,101.210%
same,% Fluorescence polarization (mean),purified human TTR; log [nM] inhibitor 2.194,93.370%
same,% Fluorescence polarization (mean),purified human TTR; log [nM] inhibitor 2.495,87.150%
same,% Fluorescence polarization (mean),purified human TTR; log [nM] inhibitor 2.796,78.760%
same,% Fluorescence polarization (mean),purified human TTR; log [nM] inhibitor 3.097,63.020%
same,% Fluorescence polarization (mean),purified human TTR; log [nM] inhibitor 3.398,50.120%
same,% Fluorescence polarization (mean),purified human TTR; log [nM] inhibitor 3.699,44.570%
same,% Fluorescence polarization (mean),purified human TTR; log [nM] inhibitor 4.000,22.560%
same,% Fluorescence polarization (mean),purified human TTR; log [nM] inhibitor […],0.000%
"CN1CC[C@]23c4c5ccc(O)c4O[C@H]2[C@@H](O)C=C[C@H]3[C@H]1C5 [Morphine, reference compound]",GI transit as % of saline group,male Sprague-Dawley rats [2],18.81% and 20.1% and 15.01% and 14.94% and 19.9%
same,hot plate latency,male Sprague-Dawley rats [3]; iv,60 s
same,hot plate latency,male Sprague-Dawley rats [3]; sc,57.0 ± 2.5 s and 60 s
same,"hot plate latency, compound alone",male Sprague-Dawley rats [3]; sc,60 s
"O=C(O)c1ccc2nc(-c3cc(Cl)cc(Cl)c3)oc2c1 [Tafamidis, reference compound]",% TTR occupancy in human serum,TTR in human serum,47.45% and 46.83% and 51.34% and 50.15%
same,% TTR occupancy in human serum,TTR in human serum; listed as tafamidis,48.9 ± 2.2%
same,%FPE probe fluorescence,TTR in human serum; time 0.000 h,0.000%
same,%FPE probe fluorescence,TTR in human serum; time 0.083 h,1.299% and -1.005% and 0.704% and 3.155%
same,%FPE probe fluorescence,TTR in human serum; time 0.250 h,4.449% and 1.397% and 6.031% and 9.730%
same,%FPE probe fluorescence,TTR in human serum; time 0.500 h,5.578% and 5.344% and 9.630% and 15.940%
same,%FPE probe fluorescence,TTR in human serum; time 1.000 h,17.103% and 15.634% and 16.546% and 22.347%
same,%FPE probe fluorescence,TTR in human serum; time 1.250 h,23.082% and 19.584% and 22.707% and 26.257%
same,%FPE probe fluorescence,TTR in human serum; time 1.500 h,27.125% and 23.274% and 25.961% and 28.688%
same,%FPE probe fluorescence,TTR in human serum; time 1.750 h,32.902% and 29.136% and 30.570% and 32.212%
same,%FPE probe fluorescence,TTR in human serum; time 2.000 h,35.080% and 33.047% and 36.500% and 37.379%
same,%FPE probe fluorescence,TTR in human serum; time 2.250 h,40.669% and 40.161% and 39.661% and 42.469%
same,%FPE probe fluorescence,TTR in human serum; time 2.500 h,46.027% and 42.493% and 42.354% and 44.462%
same,%FPE probe fluorescence,TTR in human serum; time 2.750 h,50.625% and 47.468% and 47.510% and 47.875%
same,%FPE probe fluorescence,TTR in human serum; time 3.000 h,53.169% and 48.662% and 49.846% and 52.554%
same,%FPE probe fluorescence,TTR in human serum; time 3.500 h,60.381% and 56.275% and 57.091% and 59.281%
same,%FPE probe fluorescence,TTR in human serum; time 3.750 h,61.493% and 61.080% and 58.641% and 60.288%
same,%FPE probe fluorescence,TTR in human serum; time 4.000 h,65.122% and 63.511% and 61.468% and 61.493%
same,%FPE probe fluorescence,TTR in human serum; time 4.250 h,66.463% and 64.406% and 63.696% and 64.254%
same,%FPE probe fluorescence,TTR in human serum; time 4.500 h,68.966% and 68.075% and 65.963% and 66.999%
same,%FPE probe fluorescence,TTR in human serum; time 4.750 h,72.160% and 67.655% and 67.312% and 67.678%
same,%FPE probe fluorescence,TTR in human serum; time 5.000 h,70.882% and 70.753% and 66.636% and 68.909%
same,%FPE probe fluorescence,TTR in human serum; time 5.250 h,72.950% and 73.018% and 69.707% and 71.230%
same,%FPE probe fluorescence,TTR in human serum; time 5.500 h,75.965% and 73.410% and 70.521% and 70.704%
same,%FPE probe fluorescence,TTR in human serum; time 5.750 h,76.955% and 73.721% and 71.869% and 74.221%
same,%FPE probe fluorescence,TTR in human serum; time 6.000 h,78.267% and 76.878% and 72.520% and 75.177%
